{"source": "patent US4256742A", "about": "“Antidepressant oxime ethers of dibenzocycloheptaziridones” (E. I. Du Pont de Nemours and Company, priority 1979, dated 1981)", "key": {"[1]": {"tested_on": "tetrabenazine-induced sedation and depression", "assay": "Antitetrabenazine test: prevention of tetrabenazine-induced sedation and ptosis in mice", "type": "in vivo, mice (Carworth CF1 S female)", "conditions": "tetrabenazine 32 mg/kg i.p. 30 min later, examined 1 h after antagonist; for ED50: Mus musculus", "protocol": "This mouse test is predictive of human antidepressant response (Everett, \"The Dopa Response Petentiation Test and Its Use in Screening for Antidepressant Drugs\", pp. 164-167 in \"Antidepressant Drugs\" [Proceedings of the First International Symposium], S. Garattini and M. N. G. Dukes, eds. 1967).\nGroups of 10 Carworth CF1 S female mice, 18-21 g each, were fasted 1.5 hours and were intubated with antagonist compounds at oral doses of 0, 0.33, 1, 3, 9, 27, and 81 mg/kg in 0.20 ml of 1% Methocel. The mice were challenged 30 minutes later with tetrabenazine (as the methane-sulfonate),32 mg/kg intraperitoneally (dissolved in 0.20 ml 0.05 M KCl at pH 2.0). One hour after antagonist (30 minutes after tetrabenazine), the mice were examined for signs of exploratory activity and ptosis (eyelid closure). Normal exploratory activity (relief from sedation) was recorded when a mouse lifted by the tail from a group of 10 in a testing box and placed on a stainless steel testing box lid (12.5\"×8\" with 0.33\" mesh) either turned its head horizontally 30° in both directions or moved to the edge of the screen within 10 seconds after being placed on the screen. Relief from ptosis was recorded when exactly two seconds after placing the mouse facing the observer, lid closure was less than 50% in both eyes. Table 1 gives the results in mg/kg for examples of the invention and for the established standard antidepressant, amitriptyline."}, "[2]": {"assay": "Water solubility of the salts", "type": "physicochemical", "conditions": "salt as isolated"}, "[3]": {"conditions": "po, 1 h, read-out: ED50 in antitetrabenazine test, blockade of exploratory loss (Explor.), oral, female mice, normal exploratory activity (relief from sedation)"}, "[4]": {"conditions": "po, 1 h, read-out: ED50 in antitetrabenazine test, blockade of ptosis, oral, female mice, relief from ptosis"}, "[5]": {"conditions": "oral, female mice, normal exploratory activity (relief from sedation), read-out: ED50 in antitetrabenazine test, blockade of exploratory loss (Explor.)"}, "[6]": {"conditions": "oral, female mice, relief from ptosis, read-out: ED50 in antitetrabenazine test, blockade of ptosis"}}, "note": "Structures can show the parent of a compound that is named as a salt. Where two headings read alike, the source gives them in different places.", "data": [{"smiles": "c1ccc2c(c1)C(=NOCCN1CCOCC1)c1ccccc1C1NC21", "note": "(stereo not shown) [R^2=drawing 46; R^1=H; Z=--]", "values": [{"measurement": "ED50", "setting": "[1]; [3]", "result": 16, "unit": "mg/kg"}, {"measurement": "ED50", "setting": "[1]; [4]", "result": 5.2, "unit": "mg/kg"}]}, {"smiles": "CCNCCON=C1c2ccccc2C2NC2c2ccccc21", "note": "(stereo not shown) [Example 14]", "values": [{"measurement": "ED50", "setting": "[1]; [3]", "result": 9, "unit": "mg/kg"}, {"measurement": "ED50", "setting": "[1]; [4]", "result": 4.3, "unit": "mg/kg"}]}, {"smiles": "CC(=O)N1C2c3ccccc3C(=NOCCN(C)C)c3ccccc3C21", "note": "(stereo not shown) [R^2=CH2 CH2 N(CH3)2; R^1=drawing 43; Z=--]", "values": [{"measurement": "ED50", "setting": "[1]; [5]", "result": 19, "unit": "mg/kg"}, {"measurement": "ED50", "setting": "[1]; [6]", "result": 13, "unit": "mg/kg"}]}, {"smiles": "CN(C)CCON=C1c2ccccc2C2C(c3ccccc31)N2C", "note": "(stereo not shown) [Example 3, O-[2-(Dimethylamino)ethyl]oxime of 1a,10b-Dihydrodibenzo-[3,4,6,7]cyclohept[1,2-b]-N-methylazirin-6(1H)-one]", "values": [{"measurement": "ED50", "setting": "[1]; [4]", "result": 0.65, "unit": "mg/kg"}, {"measurement": "ED50 in antitetrabenazine test, blockade of exploratory loss (Explor.)", "setting": "[1]; oral, female mice, normal exploratory activity (relief from sedation), listed as R^2=CH2 CH2 N(CH3)2, R^1=CH3, Z=--, 60 min", "result": 0.93, "unit": "mg/kg"}]}, {"smiles": "CN(C)CCON=C1c2ccccc2C2C(c3ccccc31)N2C(=O)c1ccccc1", "note": "(stereo not shown) [R^2=CH2 CH2 N(CH3)2; R^1=drawing 44; Z=--]", "values": [{"measurement": "ED50", "setting": "[1]; [5]", "result": 5.5, "unit": "mg/kg"}, {"measurement": "ED50", "setting": "[1]; [6]", "result": 5.2, "unit": "mg/kg"}]}, {"smiles": "CN(C)CCON=C1c2ccccc2C2NC2c2ccccc21", "note": "(stereo not shown) [Example 17]", "values": [{"measurement": "water solubility (in words)", "setting": "[2]", "result": "Water Soluble"}, {"measurement": "ED50 in antitetrabenazine test, blockade of exploratory loss (Explor.)", "setting": "[1]; oral, female mice, normal exploratory activity (relief from sedation), listed as R^2=CH2 CH2 N(CH3)2, R^1=H, Z=. Tartrate, 60 min", "result": 0.57, "unit": "mg/kg"}, {"measurement": "ED50 in antitetrabenazine test, blockade of ptosis", "setting": "[1]; oral, female mice, relief from ptosis, listed as R^2=CH2 CH2 N(CH3)2, R^1=H, Z=. Tartrate, 60 min", "result": 0.33, "unit": "mg/kg"}]}, {"smiles": "CCCCNCCON=C1c2ccccc2C2NC2c2ccccc21", "note": "(stereo not shown) [Example 15]", "values": [{"measurement": "ED50", "setting": "[1]; [3]", "result": "> 81", "unit": "mg/kg"}, {"measurement": "ED50", "setting": "[1]; [4]", "result": 13.3, "unit": "mg/kg"}]}, {"smiles": "CN(C)CCCON=C1c2ccccc2C2NC2c2ccccc21", "note": "(stereo not shown) [Example 9]", "values": [{"measurement": "ED50", "setting": "[1]; [3]", "result": 32, "unit": "mg/kg"}, {"measurement": "ED50", "setting": "[1]; [4]", "result": 18, "unit": "mg/kg"}]}, {"smiles": "NCCON=C1c2ccccc2C2NC2c2ccccc21", "note": "(stereo not shown) [Example 19]", "values": [{"measurement": "water solubility (in words)", "setting": "[2]", "result": "Water Soluble"}, {"measurement": "ED50 in antitetrabenazine test, blockade of exploratory loss (Explor.)", "setting": "[1]; oral, female mice, normal exploratory activity (relief from sedation), listed as R^2=CH2 CH2 NH2, R^1=H, Z=drawing 41, 60 min", "result": "14.", "unit": "mg/kg"}, {"measurement": "ED50 in antitetrabenazine test, blockade of ptosis", "setting": "[1]; oral, female mice, relief from ptosis, listed as R^2=CH2 CH2 NH2, R^1=H, Z=drawing 41, 60 min", "result": 3.4, "unit": "mg/kg"}]}, {"smiles": "CNCCON=C1c2ccccc2C2NC2c2ccccc21", "note": "(stereo not shown) [Example 20]", "values": [{"measurement": "water solubility (in words)", "setting": "[2]", "result": "Water Soluble"}, {"measurement": "ED50 in antitetrabenazine test, blockade of exploratory loss (Explor.)", "setting": "[1]; oral, female mice, normal exploratory activity (relief from sedation), listed as R^2=CH2 CH2 NHCH3, R^1=H, Z=drawing 42, 60 min", "result": 6.2, "unit": "mg/kg"}, {"measurement": "ED50 in antitetrabenazine test, blockade of ptosis", "setting": "[1]; oral, female mice, relief from ptosis, listed as R^2=CH2 CH2 NHCH3, R^1=H, Z=drawing 42, 60 min", "result": 1.3, "unit": "mg/kg"}]}, {"smiles": "CN(C)CCON=C1c2ccccc2C2C(c3ccccc31)N2CC1CCC1", "note": "(stereo not shown) [Example 22]", "values": [{"measurement": "ED50", "setting": "[1]; [3]", "result": 16, "unit": "mg/kg"}, {"measurement": "ED50", "setting": "[1]; [4]", "result": 10.8, "unit": "mg/kg"}]}, {"smiles": "CN(C)CCON=C1c2ccccc2C2C(c3ccccc31)N2C", "note": "(stereo not shown) [Example 16, Tartaric acid Salt of O-[2-(dimethylamino)ethyl]oxime of 1a, 10b-dihydrodibenzo[3,4,6,7]cyclohept[1,2-b]-N-methylazirin-6(1H)-one]", "values": [{"measurement": "water solubility (in words)", "setting": "[2]", "result": "watersoluble"}, {"measurement": "ED50 in antitetrabenazine test, blockade of exploratory loss (Explor.)", "setting": "[1]; oral, female mice, normal exploratory activity (relief from sedation), listed as R^2=CH2 CH2 N(CH3)2, R^1=CH3, Z=. Tartrate, 60 min", "result": 2.7, "unit": "mg/kg"}, {"measurement": "ED50 in antitetrabenazine test, blockade of ptosis", "setting": "[1]; oral, female mice, relief from ptosis, listed as R^2=CH2 CH2 N(CH3)2, R^1=CH3, Z=. Tartrate, 60 min", "result": 0.93, "unit": "mg/kg"}]}, {"smiles": "CN(C)CCC=C1c2ccccc2CCc2ccccc21", "note": "[AMTRIPTYLINE, amitriptyline, reference compound]", "values": [{"measurement": "ED50", "setting": "[1]; [5]", "result": 2.6, "unit": "mg/kg"}, {"measurement": "ED50", "setting": "[1]; [6]", "result": 1.2, "unit": "mg/kg"}]}, {"smiles": "c1ccc2c(c1)C(=NOCCN1CCCCC1)c1ccccc1C1NC21", "note": "(stereo not shown) [R^2=drawing 45; R^1=H; Z=--]", "values": [{"measurement": "ED50", "setting": "[1]; [3]", "result": "> 81", "unit": "mg/kg"}, {"measurement": "ED50", "setting": "[1]; [4]", "result": 8.3, "unit": "mg/kg"}]}, {"smiles": "NCCON=C1c2ccccc2C2NC2c2ccccc21", "note": "(stereo not shown) [Example 7]", "values": [{"measurement": "ED50 in antitetrabenazine test, blockade of exploratory loss (Explor.)", "setting": "[1]; oral, female mice, normal exploratory activity (relief from sedation), listed as R^2=CH2 CH2 NH2, R^1=H, Z=--, 60 min", "result": 6.6, "unit": "mg/kg"}, {"measurement": "ED50 in antitetrabenazine test, blockade of ptosis", "setting": "[1]; oral, female mice, relief from ptosis, listed as R^2=CH2 CH2 NH2, R^1=H, Z=--, 60 min", "result": 1.3, "unit": "mg/kg"}]}, {"smiles": "CNCCON=C1c2ccccc2C2NC2c2ccccc21", "note": "(stereo not shown) [Example 8]", "values": [{"measurement": "ED50 in antitetrabenazine test, blockade of exploratory loss (Explor.)", "setting": "[1]; oral, female mice, normal exploratory activity (relief from sedation), listed as R^2=CH2 CH2 NHCH3, R^1=H, Z=--, 60 min", "result": 1.9, "unit": "mg/kg"}, {"measurement": "ED50 in antitetrabenazine test, blockade of ptosis", "setting": "[1]; oral, female mice, relief from ptosis, listed as R^2=CH2 CH2 NHCH3, R^1=H, Z=--, 60 min", "result": 0.57, "unit": "mg/kg"}]}, {"smiles": "CN(C)CCON=C1c2ccccc2C2C(c3ccccc31)N2CC1CC1", "note": "(stereo not shown) [Example 21]", "values": [{"measurement": "ED50", "setting": "[1]; [3]", "result": 11.8, "unit": "mg/kg"}, {"measurement": "ED50", "setting": "[1]; [4]", "result": 10.8, "unit": "mg/kg"}]}, {"smiles": "CN(C)CCON=C1c2ccccc2C2NC2c2ccccc21", "note": "(stereo not shown) [Example 2, O-[2-(Dimethylamino)ethyl]oxime of 1a,10b-dihydrodibenzo[3,4,6,7]cyclohept[1,2-b]azirin-6(1H)-one]", "values": [{"measurement": "ED50 in antitetrabenazine test, blockade of exploratory loss (Explor.)", "setting": "[1]; oral, female mice, normal exploratory activity (relief from sedation), listed as R^2=CH2 CH2 N(CH3)2, R^1=H, Z=--, 60 min", "result": 1.1, "unit": "mg/kg"}, {"measurement": "ED50 in antitetrabenazine test, blockade of ptosis", "setting": "[1]; oral, female mice, relief from ptosis, listed as R^2=CH2 CH2 N(CH3)2, R^1=H, Z=--, 60 min", "result": 0.65, "unit": "mg/kg"}]}, {"smiles": "CN(C)CCON=C1c2ccccc2C2NC2c2ccccc21", "note": "(stereo not shown) [Example 18]", "values": [{"measurement": "water solubility (in words)", "setting": "[2]", "result": "Water Soluble"}, {"measurement": "ED50 in antitetrabenazine test, blockade of exploratory loss (Explor.)", "setting": "[1]; oral, female mice, normal exploratory activity (relief from sedation), listed as R^2=CH2 CH2 N(CH3)2, R^1=H, Z=. HCl, 60 min", "result": 2.2, "unit": "mg/kg"}, {"measurement": "ED50 in antitetrabenazine test, blockade of ptosis", "setting": "[1]; oral, female mice, relief from ptosis, listed as R^2=CH2 CH2 N(CH3)2, R^1=H, Z=. HCl, 60 min", "result": 1.0, "unit": "mg/kg"}]}]}
